SMILES strings stand for the structures.

The values below come from US9156860B2, “Boron-containing small molecules” (Anacor Pharmaceuticals, Inc., priority 2011, dated 2015).

The subject of data set [1] is Lone star tick larvae (Amblyomma americanum). Nature of the data set: Larval immersion microassay against larval-stage Lone star ticks. To be noted: for mortality at 300 µM: Amblyomma americanum, 24 h, read-out: activity (percent larval mortality). Here is the method: The larval immersion microassay was conducted as described in detail in White, et al., J. Med. Entomol. […] Compounds of the invention were formulated in dimethylsulfoxide (DMSO) to prepare a stock solution at a concentration of at least 10 mM. […] Approximately 30-50 Lone star tick larvae (Amblyomma americanum) were submerged into each well containing compounds. After a 30 minute immersion period, larvae were removed with a wide-bore pipette tip in 0.05 ml of fluid, dispensed into a commercial paper tissue biopsy bag which was sealed at the top with a plastic dialysis clip, inverted and allowed to air dry for 60 minutes. Bags containing larvae were then incubated at approximately 27 degrees Celsius and >90% relative humidity. After 24 hours, bags were opened, live and dead larvae were counted and percent larval mortality was calculated.
7 contains one chiral center, and is therefore a racemic mixture comprised of approximately 50% R- and 50% S-enantiomer. In vitro and surrogate animal (rat) studies were conducted to evaluate the biological activity of the R- and S-enantiomers of 7. For the in vitro study, larvae of the Lone star tick (Amblyomma americanum) were exposed to 17 (S-enantiomer) and 18 (R-enantiomer) using the larval immersion microassay at a concentration of no greater than 0.3 mM. Following exposure, larvae were removed, transferred to a tissue biopsy bag and incubated at approximately 27 degrees Celsius and >90% relative humidity. After 24 hours, biopsy bags were opened and the numbers of live and dead larvae were determined.

Data set [2] relates to adult American dog tick (Dermacentor variabilis). Nature of the data set: Example 5: efficacy against adult American dog tick infestations on dogs. Type of data set: in vivo. Here is the method:
(§1) The therapeutic (knockdown) and residual efficacy of 7 and 8, each administered orally at a point dose of either 25 mg/kg or 50 mg/kg bodyweight, was evaluated against adult tick (Dermacentor variabilis and Rhipicephalus sanguineus) infestations on dogs. Twenty (20) male and female beagle dogs were allocated to one of five treatment groups, four (4) dogs per group: Untreated control; 7, 25 mg/kg; 7, 50 mg/kg; 8, 25 mg/kg; and 8, 50 mg/kg. On Day −1, all dogs were infested with approximately 50 unfed, adult D. variabilis ticks. On Day 0, dogs were orally administered gelatin capsules containing either 7 or 8 (50% technical active, 47% microcrystalline cellulose and 3% croscarmellose sodium, w/w) so as to achieve the desired point dosages. Ticks were counted and classified on all dogs, but not removed, on Day 1 (approximately 24 hours after treatment). On Day 2, approximately 48 hours after treatment, ticks were counted, classified and removed. Dogs were re-infested with the same number of D. variabilis ticks on Days 5, 12 and 19 with corresponding 48 hour post-infestation tick counts on Days 7, 14 and 21. Dogs were infested with approximately 50 unfed, adult brown dog ticks (Rhipicephalus sanguineus; approximately 50% male and 50% female) on Days 15 and 28, with corresponding 48 hour post-infestation tick counts on Days 17 and 30. GM percent efficacy of treatments against both tick species was calculated using the following formula: […]

For data set [3], the system named is brown dog tick (Rhipicephalus sanguineus). In words: Example 5: efficacy against brown dog tick infestations on dogs. Type of data set: in vivo. Here is the method:
as §1

Data set [4] is described as follows: Tolerability of oral treatment in dogs. Type of data set: in vivo, beagle dogs. Here is the method: The therapeutic (knockdown) and residual efficacy of 7, administered orally at a point dosages of 5 and 25 mg/kg bodyweight, was evaluated against adult American dog tick (D. variabilis) and cat flea (C. felis) infestations on dogs. Sixteen (16) male and female beagle dogs were allocated to one of four treatment groups: Untreated control group (n=4 dogs); 7, 5 mg/kg liquid oral dosage form (n=4 dogs); 7, 25 mg/kg liquid oral dosage form (n=4 dogs); and 7, 25 mg/kg solid oral dosage form. Liquid dosage forms were prepared by dissolving 7 in a solution of 55% polyethylene glycol-300, 35% propylene glycol and 10% water at 25 mg/ml. Solid oral dosage form was prepared by thoroughly mixing 7 with microcrystalline cellulose and croscarmellose sodium (50:47:3, w/w) and placing into size 00 gelatin capsules. On Day 0, all dogs were orally administered 7 at the prescribed point dosages. Twenty-four (24) hours before treatment (Day −1), all dogs were infested with approximately 50 unfed, adult-stage American dog ticks (D. variabilis; approximately 50% male and 50% female). On Day 2, approximately 48 hours after treatment, ticks were removed and counts were conducted to determine the number and life-status classification of ticks present on all dogs (normal, moribund or dead; attached or detached). For all groups, dogs were re-infested with approximately 50 unfed, adult D. variabilis ticks on Days 5 and 12, with tick classification, counts and removal on Days 7 and 14 (approximately 48 hours after each infestation). For negative control and 7 (25 mg/kg solid oral dosage form) groups, dogs were re-infested with approximately 50 unfed, adult D. variabilis ticks on Days 19 and 28, with tick classification, counts and removal on Days 21 and 30. Immediately following removal of ticks on Day 30, dogs in the negative control and 7 (25 mg/kg solid oral dosage form) groups were infested with approximately 100 unfed, adult cat fleas (C. felis). Flea counts were conducted approximately 48 hours later, on Day 32.
as §1
The efficacy of 7, administered orally at a point dose of 25 mg/kg bodyweight, was evaluated against adult tick (Dermacentor variabilis) infestations. Twelve (12) male and female beagle dogs were allocated to three treatment groups: Untreated, negative control A; 7 group B; and 7 group C (n=4 dogs per group). Dogs were infested with approximately 50 unfed, adult D. variabilis ticks on Days −1, 5, 12, 19 and 28. […]

The nature of data set [5]: Clinical signs / tolerability in rats. Type of data set: in vivo. To be noted: oral ≦5 mg/kg, Example 8.
Data set [6] has as its system adult American dog tick (Dermacentor variabilis). Nature of the data set: Example 9: efficacy against adult American dog tick infestations on dogs. To be noted: 50 mg/kg oral. Type of data set: in vivo. The method, then:
(§2) The therapeutic (knockdown) and residual efficacy of 17, administered orally at a point dose of 50 mg/kg bodyweight, was evaluated against adult tick (Dermacentor variabilis and Rhipicephalus sanguineus) and adult cat flea (Ctenocephalides felis) infestations on dogs. Eight (8) male and female beagle dogs were allocated to either an untreated, negative control group or 17 group (n=4 dogs per group). Dogs were infested with approximately 50 unfed, adult D. variabilis ticks on Days −1, 5, 12, 19, and 28. On Day 0, dogs were orally administered gelatin capsules containing 17 (50% technical active, 47% microcrystalline cellulose and 3% croscarmellose sodium, w/w) at a point dose of 50 mg/kg. D. variabilis tick counts and classification were conducted on Day 1 (thumb count, approximately 24 hours after treatment) and Days 2, 7, 14, 21 and 30 (approximately 48 hours after treatment). Following removal of D. variabilis ticks on Day 30, all dogs were co-infested with approximately 50 unfed, adult brown dog ticks (R. sanguineus) and approximately 100 unfed, adult cat fleas (C. felis). Brown dog tick and cat flea counts were conducted on Day 32 (approximately 48 hours after infestation). GM percent efficacy of treatments against both tick species and fleas was calculated using the following formula: […]

Data set [7] has as its system brown dog tick (Rhipicephalus sanguineus). In words: Example 9: efficacy against brown dog tick infestations on dogs. Type of data set: in vivo. The settings on record: 50 mg/kg oral, Day 32. The method, then:
as §2

In data set [8] the test system is cat flea (Ctenocephalides felis). Nature of the data set: Example 9: efficacy against cat flea infestations on dogs. Type of data set: in vivo. To be noted: 50 mg/kg oral, Day 32. The method, then:
as §2

For data set [9], the system named is Dermacentor variabilis tick nymphs. Nature of the data set: Efficacy against nymphal-stage American dog ticks on rats. It counts as in vivo. Here is the method: Evaluations were conducted using a modified version of the assay as described in Gutierrez et al., J. Med. Entomol. 43(3): 526-532 (2006). This assay may be modified by simply using different tick species (the reference describes Amblyomma americanum ticks), such as Dermacentor variabilis or Rhipicephalus sanguineus ticks, as well as different life-stages (larval, nymphal or adult). Further, the reference describes using topical application methods, but oral, transdermal and subcutaneous injection routes of administration may be used.
In these studies, adult male or female rats, approximately 300 grams in size, were randomly assigned to a treatment group or a control (untreated negative control or fipronil positive control) group. Each group consisted of three (3) to five (5) rats. […] On Day 2, approximately forty-eight (48) hours after treatment, live and dead ticks were removed from animals and counted.
Live tick counts were transformed using the natural logarithm transformation plus one (Ln count+1); addition of one to each count served to adjust for counts that were zero. […] GM percent efficacy of treatments was calculated using the following formula:
Enantiomers were evaluated for activity against American dog tick (Dermacentor variabilis) nymphs on rats. […] On Day 2, approximately forty-eight (48) hours after treatment, live and dead ticks were removed from animals and counted. […]

Take `CC1(C)OB(O)c2ccc(C3=NOC(c4cc(Cl)c(F)c(Cl)c4)(C(F)(F)F)C3)cc21` (stereo not shown) [Compound 8, 5-(5-(3,5-dichloro-4-fluorophenyl)-5-(trifluoromethyl)-4,5-dihydroisoxazol-3-yl)-3,3-dimethyl-benzo[c][1,2]oxaborol-1(3H)-ol]: in data set [1], the mortality at 300 µM is ≥ 80%. The “% efficacy” value in [2] (25 mg/kg oral capsule, Day 1) was “(81.0) %”; in data set [2] (25 mg/kg oral capsule, Day 14) it was “(85.0) %”; in [2] (25 mg/kg oral capsule, Day 21), “(79.3) %”; in [2] (50 mg/kg oral capsule, Day 1), “(80.9) %”; in data set [2] (50 mg/kg oral capsule, Day 14), “(80.4) %”; in data set [2] (50 mg/kg oral capsule, Day 21), “(75.1) %”. The “% efficacy” value in data set [3] (25 mg/kg oral capsule, Day 17) is on record as “(73.4) %”; in [3] (50 mg/kg oral capsule, Day 17), “(80.2) %”; in data set [3] (50 mg/kg oral capsule, Day 30), “(42.1) %”. Besides, the “Geometric mean group live tick count” value was 2.0 in data set [2] (25 mg/kg oral capsule, Day 1); 0.0 in [2] (25 mg/kg oral capsule, Day 2); 1.5 in [2] (25 mg/kg oral capsule, Day 7); 2.5 in [2] (25 mg/kg oral capsule, Day 14); 3.4 in [2] (25 mg/kg oral capsule, Day 21); 2.0 in [2] (50 mg/kg oral capsule, Day 1). Besides, the “Geometric mean group live tick count” value in [2] (50 mg/kg oral capsule, Day 2) was found to be 0.0; in [2] (50 mg/kg oral capsule, Day 7), 0.6; in data set [2] (50 mg/kg oral capsule, Day 14), 3.2; in data set [2] (50 mg/kg oral capsule, Day 21) it was 4.0; in data set [3] (25 mg/kg oral capsule, Day 17) it was 7.2; in data set [3] (50 mg/kg oral capsule, Day 17) it was 5.4. The “Geometric mean group live tick count” value in data set [3] (50 mg/kg oral capsule, Day 30) is reported as 21.5. Moreover, the tolerability result in [4] (oral 25 or 50 mg/kg, Example 5) was “well tolerated”.
Regarding `CC1(C)OB(O)c2ccc(C3=NO[C@@](c4cc(Cl)c(Cl)c(Cl)c4)(C(F)(F)F)C3)cc21` [Compound 17, (S)-3,3-Dimethyl-5-(5-(3,4,5-trichlorophenyl)-5-(trifluoromethyl)-4,5-dihydroisoxazol-3-yl)benzo[c][1,2]oxaborol-1(3H)-ol], in data set [1], the mortality at 300 µM is ≥ 80%. Also, the tolerability result in data set [5] is on record as “well tolerated”; in [4] (oral 50 mg/kg, Example 9), “well tolerated”. Also, the “Geometric mean group live tick count” value in data set [6] (Day 1) came out at 0.7; in data set [6] (Day 2) it was 0.0; in data set [6] (Day 7), 0.0; in data set [6] (Day 14), 1.2; in [6] (Day 21), 0.0; in data set [6] (Day 30), 1.9. Besides, the “Geometric mean group live tick count” value in [7] was found to be 1.9. The entries for the “% efficacy” value in data set [6] (Day 7), in data set [6] (Day 14) and in data set [6] (Day 21) were “(100) %”, “(96.7) %” and “(100) %”, respectively. For the same molecule, the residual efficacy in [6] (through Day 21) was 97-100%. The “Geometric mean group live flea count” value in data set [8] came to 0.0.
Regarding `CC1(C)OB(O)c2ccc(C3=NO[C@](c4cc(Cl)c(Cl)c(Cl)c4)(C(F)(F)F)C3)cc21` [Compound 18, (R)-3,3-Dimethyl-5-(5-(3,4,5-trichlorophenyl)-5-(trifluoromethyl)-4,5-dihydroisoxazol-3-yl)benzo[c][1,2]oxaborol-1(3H)-ol], the “In vitro activity at 0.3 mM” value in data set [1] (0.3 mM, A. americanum larvae, counted after 24 hours) is listed as 0.0%. Besides, the “% Efficacy at Dose of ≦5 mg/kg” value in data set [9] (oral point doses of ≦5 mg/kg, D. variabilis nymphs, 48 hours after treatment, 5 mg/kg) is 10.7%. Also, in data set [5], the tolerability entry is listed as “well tolerated”.
Turning to `N#Cc1nn(-c2c(Cl)cc(C(F)(F)F)cc2Cl)c(N)c1[S+]([O-])C(F)(F)F` (stereo not shown) [Fipronil, reference compound], in data set [9] (positive control, oral 10 mg/kg bodyweight, all studies), the “efficacy (% reduction in live tick counts)” value is > 95%.
